The source of these data is ChEMBL document CHEMBL1201862, “PubChem BioAssay data set” (2004).

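Cultured in 96-well plates, cells were exposed to test compound for 48 hours across five concentrations. GI50 = concentration required for 50% inhibition of growth.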 Calls of active or inactive are those of the source. No stated cut-off is given here; in the data, active = GI50 up to about 1.1 µM and inactive = higher.

What all share (test): NCI-60 cell line screen, 48 h
Test [1] relates to SNB-75.
The subject of test [2] is K562.
The test system of test [3] is RXF 393.
Test [4] concerns UACC-257.
Test [5] has as its system SN12C.
The subject of test [6] is SNB-19.
The test system of test [7] is OVCAR-3.
The subject of test [8] is NCI-H23.
For test [9], the system named is UO-31.
For test [10], the system named is SF-295.
In test [11] the test system is M14.
For test [12], the system named is EKVX.
Test [13] concerns NCI-H460.
Test [14] relates to CCRF-CEM.
The subject of test [15] is HL-60.
Test [16] relates to LOX IMVI.
Test [17] has as its system HCC 2998.
Test [18] deals with NCI-H226.
Test [19] concerns IGROV-1.

As to `COc1ccccc1N1CCN(S(=O)(=O)c2ccc(Cl)cc2)C1=N`, the GI50 in test [1] was > 100 µM (inactive); in test [2], 61.7 µM (inactive); in [3], > 100 µM (inactive); in test [4] it was 41.6 µM (inactive); in test [5], > 100 µM (inactive); in test [6], 51.3 µM (inactive). Further, the GI50 in test [7] is 97.9 µM (inactive); in test [8], 60 µM (inactive); in test [9], 33.3 µM (inactive); in test [10], > 100 µM (inactive); in [11] it was 26.2 µM (inactive); in [12] it was 26.9 µM (inactive). In addition, the GI50 in test [13] is 33.4 µM (inactive).

For `Cc1c(C(=O)C/C(=N/NC(=O)c2ccccc2O)C(=O)Nc2ccccc2C(C)C)[n+]([O-])c2ccccc2[n+]1[O-]`, the GI50 was > 100 µM (inactive) in test [1]; 1.47 µM (inactive) in test [14]; 3.01 µM (inactive) in [15]; 33.7 µM (inactive) in test [2]; 32.1 µM (inactive) in test [16]; 75.3 µM (inactive) in [3]. In addition, the GI50 in test [4] is 28.1 µM (inactive); in [5] it was 43.8 µM (inactive); in test [17] it was 52.5 µM (inactive); in test [6], > 100 µM (inactive); in [7] it was 25.8 µM (inactive); in test [8], 19.4 µM (inactive). Also, the GI50 in test [18] was > 100 µM (inactive); in [19], 28.3 µM (inactive); in [10], 56.9 µM (inactive); in test [11] it was 31 µM (inactive); in test [12], 47.4 µM (inactive); in [13], 31.2 µM (inactive).

As to `O=C1C(CN2CCCCC2)CCCC1CN1CCCCC1` (centres undefined), the GI50 in test [16] was 16.9 µM (inactive); in [3], 16.3 µM (inactive); in test [4] it was 17.2 µM (inactive); in [5] it was 32.7 µM (inactive); in test [17], 51.3 µM (inactive); in test [7], 18.6 µM (inactive). In addition, the GI50 in test [8] is 22.9 µM (inactive); in test [18], > 52.2 µM (inactive); in [9], > 56.2 µM (inactive); in test [19], > 56.2 µM (inactive); in test [11] it was 20.7 µM (inactive); in test [12] it was 16.2 µM (inactive).

With `Oc1ccccc1C1=NOC(c2ccc(C(F)(F)F)cc2)C1` (centres undefined), the GI50 in [1], in test [14], in test [15], in test [2], in test [16] and in test [3] was > 50 µM (inactive) in each case. The GI50 in [4], in test [5], in [17], in test [6], in test [7] and in test [8] was > 50 µM (inactive) in each case. The GI50 is > 50 µM (inactive) in [18]; 0.527 µM (active) in [19]; > 50 µM (inactive) in test [10]; > 50 µM (inactive) in [11]; > 50 µM (inactive) in [12]; > 50 µM (inactive) in test [13].

`O=Cc1coc2ccccc2c1=O`: the GI50 in test [1] is < 0.01 µM (active); in test [14] it was 18.2 µM (inactive); in [15], 18.6 µM (inactive); in test [2], 19.3 µM (inactive); in [16] it was 16.9 µM (inactive); in test [3] it was 18 µM (inactive). The GI50 was 18.7 µM (inactive) in [4]; 19.5 µM (inactive) in [5]; 24.6 µM (inactive) in test [6]; 32.1 µM (inactive) in test [7]; 21.9 µM (inactive) in test [8]; 37.7 µM (inactive) in test [18]. Also, the GI50 in test [9] was 11.9 µM (inactive); in [19] it was 15.7 µM (inactive); in test [10] it was 17.9 µM (inactive); in test [11] it was 17.9 µM (inactive); in test [12], 22.4 µM (inactive); in [13], 20.9 µM (inactive).
